Values after ≈ are worked out from the molar mass of the structure shown. Read-outs that look alike come from different tables or passages of the source.
What was measured:
Escherichia coli [1] = assay: Agar well diffusion assay, E. coli; assay type: cell-based; conditions: ratio of inhibition zone to that of positive control
Protocol: (§1) According to the reported method, the OSe agents’ antimicrobial properties were estimated against Staphylococcus aureus (S. aureus), Escherichia coli (E. coli), and Candida albicans (C. albicans) microbial strains using the agar well diffusion assay. In addition, the MICs (in […]) were also recorded via the microdilution method following the reported procedure. Experimental details can be found in the Supplementary Materials Section S1 [16, 18].
(§2) The promising anticancer activities manifested by the OSe compounds encourage us to further evaluate their respective antimicrobial activity against a panel of gram-negative bacteria (e.g., E. coli) and the gram-positive bacteria (e.g., S. aureus) as well as a fungal strain (C. albicans) using the method of agar diffusion. The clotrimazole antifungal and the ampicillin antibacterial drugs were used as the positive controls. […]
(§3) 1.1.2. The antimicrobial activity
(§4) The antimicrobial activities of the OSe compounds were evaluated against C. albicans yeast as well as E. coli gram-negative and S. aureus gram-positive bacteria employing the agar well diffusion assay [ 4 ] .
(§5) Briefly, a concentration of 1 mM was prepared for each compound by dissolving in DMSO.
(§6) Paper discs of standard size […] were sterilized in an autoclave and soaked in 9 µL of the test compounds, and placed in the Petri dishes, which in turn contain a nutrient media (agar 9 g, peptone 5 g, and beef extract 3 g) seeded with the dedicated strain. Incubation lasted for 13 h at 36 0C. Experiments were replicated three times and the antifungal clotrimazole and antibiotic ampicillin were used as standards. The % activity index for the complex was determined and depicted in table 2. […]

[2] = ABTS radical scavenging bioassay; conditions: for ABTS radical scavenging activity: 50 µL, 1 mM in MeOH, ABTS solution 60 µL, 734 nm; for IC50: dose needed to decrease the absorbance by 50%
Text: (§7) The DPPH and ABTS in vitro bioassays were used to assess the OSe antioxidant activities following the reported method. Experimental details can be found in the Supplementary Materials Section S1.
(§8) The redox modulation activities of the OSe compounds were extensively explored over the last decade owing to their chemopreventive and antioxidant potency. The latter is usually investigated by the ABTS and DPPH in vitro tests employing vitamin C as the positive control. The OSe compound’s magnitude estimated the antioxidant potential to decolorize the distinctive colors of the DPPH^. and ABTS^. radicals at 517 nm and 734 nm, respectively (Figure 2).
(§9) Figure 2 The OSe compounds redox activities assessment using the ABTS and DPPH experiments. All tests are mean ± SD. ABTS experiment: absorbance was followed at 734 nm for OSe compounds (50 µL, 1 mM in MeOH) and ABTS solution (60 µL). DPPH experiment: Absorbance was monitored after 30 min at 517 nm for OSe compounds (200 µL, 1 mM in MeOH) and DPPH (400 µL). […]
1.1.3.2. The ABTS bioassay
The antioxidant activity of the investigated compounds was assessed using 2,2’-azino-bis(3-ethylbenzothiazoline-6-sulphonic acid (ABTS) method. The radical cation derived from ABTS was prepared by the reaction of 60 mM ABTS solution with 0.3 M manganese dioxide solution in 0.1M phosphate buffer, pH 7. Then, the mixture was shaken, centrifuged, filtered, and the absorbance (Acontrol) of the resulting green-blue solution (ABTS radical solution) was measured at wavelength 734 nm. Then, […] of 1 mg/ml test compound in phosphate-buffered methanol was added. The absorbance (Atest) was measured. The reduction in color intensity was expressed as % inhibition. The % inhibition for each compound is calculated from the following equation
Inhibition% = (Acontrol-Asample)/(Acontrol)*100
Ascorbic acid (vitamin C) was used as a standard antioxidant (positive control). A blank sample was run without ABTS and using MeOH/phosphate buffer (1:1) instead of the sample. A negative control sample was run with MeOH/phosphate buffer (1:1) instead of a tested compound.

Candida albicans [3] = assay: Agar well diffusion assay, C. albicans; assay type: cell-based; set-up: concentration or dose not given beside the values; conditions: ratio of inhibition zone to that of positive control
Protocol: as §1, §2, §3, §4, §5, §6

WI-38 cells = assay: MTT assay, cytotoxicity against normal WI-38 fibroblasts; assay type: cell-based; conditions: Homo sapiens, WI-38, 24 h, read-out: WI38 IC50
Protocol: (§10) The anticancer activity of the OSe was performed using the MTT assay against liver (HepG2) and breast (MCF-7) carcinoma cells, as well as normal WI-38 cells following the reported method. Experimental details can be found in the Supplementary Materials Section S1.
(§11) Accordingly, the anticancer properties of the OSe hybrids were assessed against two cancer cell lines, i.e., HepG2 and MCF-7 cells. Furthermore, their corresponding cytotoxicity was also estimated against the immortalized lung WI-38 fibroblasts employing the MTT assay. The Adriamycin cancer drug was used as the positive control.
(§12) 1.1. The biological assays
(§13) 1.1.1. The anticancer activity
(§14) The breast adenocarcinoma (MCF-7), Hepatocellular carcinoma (HEPG-2), and normal fibroblast (WI-38) cells were obtained from ATCC via Holding company for biological products and vaccines (VACSERA), Cairo, Egypt. The reagents […] medium, MTT, DMSO, and fetal bovine serum was obtained from Sigma Aldrich. Dulbecco’s modified Eagle’s medium was used as the culture medium for the cells, and the cytotoxicity was evaluated using the reported MTT assay. Doxorubicin was used as the positive reference, and the IC50 values were obtained from the corresponding dose-response curve.
(§15) This colorimetric assay is based on converting the yellow tetrazolium bromide (MTT) to a purple formazan derivative by mitochondrial succinate dehydrogenase in viable cells. Cell lines were cultured in […] medium with 10% fetal bovine serum. Antibiotics added were 100 units/ml penicillin and 100µg/ml streptomycin at 37 C in a 5% Co2 incubator. The cell lines were seeded in a 96-well plate at a density of 1.0x10^4 cells/well. at 37 C for 48 h under 5% […]
(§16) Finally, dimethyl sulfoxide (DMSO) in the volume of 100 µl is added to each well to dissolve the purple formazan formed. […]

Staphylococcus aureus [4] = assay: Agar well diffusion assay, S. aureus; assay type: cell-based; conditions: read-out: S. aureus ZID
Staphylococcus aureus [5] = assay: Agar well diffusion assay, S. aureus; assay type: cell-based; conditions: ratio of inhibition zone to that of positive control
Protocol: as §1, §2, §3, §4, §5, §6

[6] = DPPH radical scavenging bioassay; conditions: for DPPH radical scavenging activity: 200 µL, 1 mM in MeOH, DPPH 400 µL, 30 min, 517 nm; for IC50: dose needed to decrease the absorbance by 50%
Text: as §7, §8, §9
1.1.3. The antioxidant activity
1.1.3.1. The DPPH bioassay
The hydrogen atom or electron donation ability of the corresponding compounds was measured by estimating the bleaching of the purple color of a methanolic solution of DPPH [5]. This spectrophotometric assay uses stable DPPH. reagent. The sample was prepared by adding […] of the OSe compounds (1 mM in methanol) to […] DPPH in methanol. After 30 min of incubation in the dark, the absorbance was read against a blank at […]. Ascorbic acid (vitamin C) and ebselen were used as standard antioxidants (positive control). A blank sample was run without DPPH. A negative control sample was run using methanol instead of the sample. The radical scavenging activity was […]
using the following equation:
Inhibition%= (Ablank-Asample)/(Ablank)*100. […]

HepG2 cells = assay: MTT assay, antiproliferative activity, HepG2 liver carcinoma cells; assay type: cell-based; conditions: Homo sapiens, HepG2, 24 h, read-out: HepG2 IC50
Protocol: as §10
Accordingly, the anticancer properties of the OSe hybrids were assessed against two cancer cell lines, i.e., HepG2 and MCF-7 cells. Furthermore, their corresponding cytotoxicity was also estimated against the immortalized lung WI-38 fibroblasts employing the MTT assay. The Adriamycin cancer drug was used as the positive control. The concentration inhibition, 50%, needed to kill half of the cells (IC50) was estimated from (concentration-response plots) and tabulated in Table 1.
as §12, §13, §14, §15
Finally, dimethyl sulfoxide (DMSO) in the volume of 100 µl is added to each well to dissolve the purple formazan formed. The colorimetric assay is measured and recorded at an absorbance of 570 nm using a plate reader (EXL 800, USA). […]

Candida albicans [7] = assay: Agar well diffusion assay, C. albicans; assay type: cell-based; conditions: read-out: C. Albicans ZID
MCF-7 cells = assay: MTT assay, antiproliferative activity, MCF-7 breast carcinoma cells; assay type: cell-based; conditions: Homo sapiens, MCF7, 24 h, read-out: MCF7 IC50
Protocol: as §10, §11, §12, §13, §14, §15, §16

Escherichia coli [8] = assay: Agar well diffusion assay, E. coli; assay type: cell-based; conditions: read-out: E. coli ZID
Escherichia coli [9] = assay: MIC by microdilution method, E. coli; assay type: cell-based; conditions: read-out: MIC E. coli
Protocol: as §1
(§17) In general, C. Albicans fungus and S. aureus gram-positive bacteria were more sensitive than gram-negative bacteria toward the OSe compounds. […]
(§18) Briefly, a concentration of 1 mM was prepared for each compound by dissolving in DMSO. […]
(§19) Furthermore, the MICs (in µM) were determined by the microdilution method according to the
1.1.3. […]

Staphylococcus aureus [10] = assay: MIC by microdilution method, S. aureus; assay type: cell-based; conditions: read-out: MIC S. aureus
Protocol: as §1, §17, §18, §19
1.1.3. […]

Candida albicans [11] = assay: MIC by microdilution method, C. albicans; assay type: cell-based; conditions: read-out: MIC C. Albicans
Protocol: as §1, §17, §18, §19
1.1.3. […]

[12] = inhibition zone diameter, disks (6 mm) soaked with 20 μM

SMILES | E. coli IA% (activity index) (Escherichia coli [1]) | ABTS radical scavenging activity [2] | C. Albicans IA% (activity index) (Candida albicans [3]) | IC50 (WI-38 cells) | zone of inhibition at 20 µM (Staphylococcus aureus [4]) | S. aureus IA% (activity index) (Staphylococcus aureus [5]) | DPPH radical scavenging activity [6] | IC50 (HepG2 cells) | zone of inhibition at 20 µM (Candida albicans [7]) | IC50 (MCF-7 cells) | zone of inhibition at 20 µM (Escherichia coli [8]) | other results
COC(=O)c1cc([Se]C#N)ccc1N [Compound 4, Methyl 2-amino-5-selenocyanatobenzoate] | 60.9% | 73% | 75% | 52.6 ± 3.1 µM | 16 mm | 76.2% | 81% | 11.2 ± 1 µM | 18 mm | 23.4 ± 1.8 µM | 14 mm | melting point: 118 to 119 °C
COC(=O)c1cc([Se][Se]c2ccc(N)c(C(=O)OC)c2)ccc1N [Compound 5, dimethyl 5,5′-diselanediylbis(2-aminobenzoate)] | 82.6% | 86% | 87.5% | 35.9 ± 2.3 µM | 18 mm | 85.7% | 92% | 7.08 ± 0.6 µM | 21 mm | 9.89 ± 0.7 µM | 19 mm | –
O=C1O[C@H]([C@@H](O)CO)C(O)=C1O [Vitamin C, Ascorbic acid, reference compound] | – | – | – | – | – | – | 95% | – | – | – | – | IC50 [2]: 28.16 ± 0.19 µM; IC50 [6]: 19.18 ± 0.13 µM
CCOC(=O)C(C#N)=NNc1ccc([Se][Se]c2ccc(NN=C(C#N)C(=O)OCC)c(C(=O)OC)c2)cc1C(=O)OC [Compound 6, dimethyl 5,5′-diselanediylbis(2-(2-(1-cyano-2-ethoxy-2-oxoethylidene) hydrazinyl) benzoate)] | 69.6% | 69% | 70.8% | 42.5 ± 2.6 µM | 16 mm | 76.2% | 85% | 16.2 ± 1.2 µM | 17 mm | 15.9 ± 1.2 µM | 16 mm | melting point: 105 to 106 °C
CC1(C)S[C@@H]2[C@H](NC(=O)[C@H](N)c3ccccc3)C(=O)N2[C@H]1C(=O)O [Ampicillin, reference compound] | 100% | – | – | – | – | 100% | – | – | – | – | – | MIC (Escherichia coli [9]; microdilution): 0.5 µM (≈ 0.175 µg/mL); zone of inhibition at 20 µM (Staphylococcus aureus [4]; [12]): 21 mm; MIC (Staphylococcus aureus [10]; microdilution): 1 µM (≈ 0.349 µg/mL); zone of inhibition at 20 µM (Escherichia coli [8]; [12]): 23 mm
Clc1ccccc1C(c1ccccc1)(c1ccccc1)n1ccnc1 [Clotrimazole, reference compound] | – | – | 100% | – | – | – | – | – | – | – | – | MIC (Candida albicans [11]; microdilution): 2 µM (≈ 0.69 µg/mL); zone of inhibition at 20 µM (Candida albicans [7]; [12]): 24 mm
COC(=O)c1cc([Se]C)ccc1N [Compound 14, methyl 2-amino-5-(methylselanyl) benzoate] | 91.3% | 91% | 100% | 62.4 ± 3.6 µM | 19 mm | 90.5% | 96% | 3.57 ± 0.1 µM | 24 mm | 5.64 ± 0.3 µM | 21 mm | IC50 [2]: 29.14 ± 0.2 µM; MIC (Escherichia coli [9]): 0.5 µM (≈ 0.122 µg/mL); IC50 [6]: 18.67 ± 0.12 µM; MIC (Candida albicans [11]): 2 µM (≈ 0.488 µg/mL); MIC (Staphylococcus aureus [10]): 2 µM (≈ 0.488 µg/mL)

Source: article PMC9775310, “Anticancer, Antimicrobial, and Antioxidant Activities of Organodiselenide-Tethered Methyl Anthranilates” (Biomolecules, 2022)
